Values joined by “and” are separate entries in the source; they are usually repeats but may differ in a detail not shown here. Equal entries are not always repeated. Toxic doses and inconclusive results are not listed.
Test system: P335 leukemia ip, BDF1 mice, survival T/C %
Test: NCI In Vivo Anticancer Drug Screen. Data for tumor model P335 Leukemia (intraperitoneal) in B6D2F1 (BDF1) mice
Conditions: endpoint: mean survival time, higher = longer survival
Description: The antitumor activity of compounds was measured in mice bearing transplantable tumors. Survival or tumor size were measured and the results are expressed as the measurement made in the treated group (T) divided by the measurement made in the vehicle treated control group (C). The tumor model used in this assay is P335 Leukemia (intraperitoneal) in B6D2F1 (BDF1) mice

[1] = dose: 25.0 mg/kg/injection, schedule: Q01DX Z (ip), vehicle: carboxymethylcellulose (CMC)
[2] = dose: 50.0 mg/kg/injection, schedule: Q01DX Z (ip), vehicle: carboxymethylcellulose (CMC)
[3] = dose: 100.0 mg/kg/injection, schedule: Q01DX Z (ip), vehicle: carboxymethylcellulose (CMC)
[4] = dose: 0.25 mg/kg/injection, schedule: Q01DX Z (ip), vehicle: carboxymethylcellulose (CMC)
[5] = dose: 12.5 mg/kg/injection, schedule: Q01DX Z (ip), vehicle: carboxymethylcellulose (CMC)
[6] = dose: 50.0 mg/kg/injection, schedule: Q01DX Z (ip), vehicle: other
[7] = dose: 8.0 mg/kg/injection, schedule: Q01DX Z (ip), vehicle: carboxymethylcellulose (CMC)
[8] = dose: 16.0 mg/kg/injection, schedule: Q01DX Z (ip), vehicle: carboxymethylcellulose (CMC)
[9] = dose: 31.25 mg/kg/injection, schedule: Q01DX Z (ip), vehicle: carboxymethylcellulose (CMC)
[10] = dose: 125.0 mg/kg/injection, schedule: Q01DX Z (ip), vehicle: carboxymethylcellulose (CMC)
[11] = dose: 100.0 mg/kg/injection, schedule: Q01DX Z (ip), vehicle: other
[12] = dose: 250.0 mg/kg/injection, schedule: Q01DX Z (ip), vehicle: carboxymethylcellulose (CMC)

## N=[N+]=CC(=O)OCC(N)C(=O)O (configuration not stated)
dose: 1.18 mg/kg/injection, schedule: Q01DX Z (ip), vehicle: saline
  T/C: 101 % of control
dose: 2.35 mg/kg/injection, schedule: Q01DX Z (ip), vehicle: saline
  T/C: 122 % of control
dose: 4.69 mg/kg/injection, schedule: Q01DX Z (ip), vehicle: saline
  T/C: 122 % of control
dose: 25.0 mg/kg/injection, schedule: Q01DX Z (ip), vehicle: saline
  T/C: 106 % of control
dose: 50.0 mg/kg/injection, schedule: Q01DX Z (ip), vehicle: saline
  T/C: 94 % of control

## C[C@@H]1C[C@H]2CC[C@H](O2)[C@H](C)C(=O)O[C@@H](C)C[C@@H]2CC[C@@H](O2)[C@@H](C)C(=O)O[C@H](C)C[C@H]2CC[C@H](O2)[C@H](C)C(=O)O[C@@H](C)C[C@@H]2CC[C@@H](O2)[C@@H](C)C(=O)O1
[1]
  T/C: 96 % of control
[2]
  T/C: 88 % of control
[3]
  T/C: 86 % of control

## Cn1cnc([N+](=O)[O-])c1Sc1nc(N)nc2nc[nH]c12
[4]
  T/C: 93 % of control

## O=C(Nc1ccc(C2=NCCCN2)cc1)c1ccc(C(=O)Nc2ccc(C3=NCCCN3)cc2)cc1
dose: 0.4 mg/kg/injection, schedule: Q01DX Z (ip), vehicle: water
  T/C: 98 % of control
dose: 1.6 mg/kg/injection, schedule: Q01DX Z (ip), vehicle: water
  T/C: 154 % of control
dose: 3.1 mg/kg/injection, schedule: Q01DX Z (ip), vehicle: water
  T/C: 207 % of control

## O=C(O)CCCc1ccc(N(CCCl)CCCl)cc1
dose: 6.25 mg/kg/injection, schedule: Q01DX Z (ip), vehicle: carboxymethylcellulose (CMC)
  T/C: 89 % of control
[5]
  T/C: 89 % of control

## NC(=O)N(CCCl)N=O
dose: 0.12 mg/kg/injection, schedule: Q01DX Z (ip), vehicle: carboxymethylcellulose (CMC)
  T/C: 94 % of control
[4]
  T/C: 114 % of control
dose: 1.0 mg/kg/injection, schedule: Q01DX Z (ip), vehicle: carboxymethylcellulose (CMC)
  T/C: 110 % of control

## S=P(N1CCOCC1)(N1CC1)N1CC1
[5]
  T/C: 101 % of control
[1]
  T/C: 93 % of control

## CC(=O)OCC1OC(n2ncc(=O)[nH]c2=O)C(OC(C)=O)C1OC(C)=O (configuration not stated)
dose: 25.0 mg/kg/injection, schedule: Q01DX Z (ip), vehicle: other
  T/C: 120 % of control
[6]
  T/C: 109 % of control
dose: 99.0 mg/kg/injection, schedule: Q01DX Z (ip), vehicle: other
  T/C: 114 % of control
dose: 187.5 mg/kg/injection, schedule: Q01DX Z (ip), vehicle: other
  T/C: 124 % of control
dose: 188.0 mg/kg/injection, schedule: Q01DX Z (ip), vehicle: other
  T/C: 114 % of control

## Clc1ncnc2nc[nH]c12
[7]
  T/C: 89 % of control
[8]
  T/C: 101 % of control
dose: 31.0 mg/kg/injection, schedule: Q01DX Z (ip), vehicle: carboxymethylcellulose (CMC)
  T/C: 89 % of control
[9]
  T/C: 110 % of control
dose: 62.5 mg/kg/injection, schedule: Q01DX Z (ip), vehicle: carboxymethylcellulose (CMC)
  T/C: 101 % of control
[10]
  T/C: 110 % of control

## CC[C@H](c1ccc(O)cc1)[C@@H](CC)c1ccc(O)cc1
dose: 0.5 mg/kg/injection, schedule: Q01DX Z (sc), vehicle: steriod suspending solution
  T/C: 103 % of control
dose: 1.0 mg/kg/injection, schedule: Q01DX Z (sc), vehicle: steriod suspending solution
  T/C: 108 % of control
dose: 2.0 mg/kg/injection, schedule: Q01DX Z (sc), vehicle: steriod suspending solution
  T/C: 115 % of control and 116 % of control
dose: 4.0 mg/kg/injection, schedule: Q01DX Z (sc), vehicle: steriod suspending solution
  T/C: 114 % of control
dose: 8.0 mg/kg/injection, schedule: Q01DX Z (sc), vehicle: steriod suspending solution
  T/C: 122 % of control
dose: 16.0 mg/kg/injection, schedule: Q01DX Z (sc), vehicle: steriod suspending solution
  T/C: 111 % of control
dose: 31.0 mg/kg/injection, schedule: Q01DX Z (sc), vehicle: steriod suspending solution
  T/C: 105 % of control
dose: 62.5 mg/kg/injection, schedule: Q01DX Z (sc), vehicle: steriod suspending solution
  T/C: 103 % of control and 111 % of control
dose: 125.0 mg/kg/injection, schedule: Q01DX Z (sc), vehicle: steriod suspending solution
  T/C: 103 % of control
dose: 250.0 mg/kg/injection, schedule: Q01DX Z (sc), vehicle: steriod suspending solution
  T/C: 106 % of control
dose: 500.0 mg/kg/injection, schedule: Q01DX Z (sc), vehicle: steriod suspending solution
  T/C: 97 % of control

## Cc1n[nH]c(=O)[nH]c1=O
[6]
  T/C: 97 % of control
[11]
  T/C: 97 % of control
dose: 200.0 mg/kg/injection, schedule: Q01DX Z (ip), vehicle: other
  T/C: 102 % of control
dose: 400.0 mg/kg/injection, schedule: Q01DX Z (ip), vehicle: other
  T/C: 103 % of control

## Nc1nc2n[nH]nc2c(=O)[nH]1
[11]
  T/C: 115 % of control

## N#CCSc1ncnc2nc[nH]c12
[2]
  T/C: 93 % of control
[3]
  T/C: 93 % of control
dose: 200.0 mg/kg/injection, schedule: Q01DX Z (ip), vehicle: methylcellulose (MC)
  T/C: 91 % of control

## CCOC(=O)NP(=O)(N1CC1(C)C)N1CC1(C)C (configuration not stated)
dose: 4.0 mg/kg/injection, schedule: Q01DX Z (ip), vehicle: carboxymethylcellulose (CMC)
  T/C: 101 % of control
[7]
  T/C: 106 % of control
[8]
  T/C: 114 % of control
[9]
  T/C: 101 % of control
[10]
  T/C: 88 % of control
[12]
  T/C: 93 % of control

## CSc1ncnc2nc[nH]c12
[5]
  T/C: 96 % of control
[2]
  T/C: 90 % of control
dose: 50.0 mg/kg/injection, schedule: Q01DX Z (ip), vehicle: methylcellulose (MC)
  T/C: 87 % of control

## O=C(Nc1ccc(NC2=NCCN2)cc1)c1ccc(C(=O)Nc2ccc(NC3=NCCN3)cc2)cc1
dose: 4.0 mg/kg/injection, schedule: Q01DX Z (ip), vehicle: saline
  T/C: 175 % of control
dose: 8.0 mg/kg/injection, schedule: Q01DX Z (ip), vehicle: saline
  T/C: 208 % of control
dose: 16.0 mg/kg/injection, schedule: Q01DX Z (ip), vehicle: saline
  T/C: 170 % of control
dose: 32.0 mg/kg/injection, schedule: Q01DX Z (ip), vehicle: saline
  T/C: 91 % of control

## CC(=O)[C@H]1CC[C@H]2[C@@H]3C[C@H](C)C4=CC(=O)CC[C@]4(C)[C@H]3C(=O)C[C@]12C
dose: 12.5 mg/kg/injection, schedule: Q01DX Z (sc), vehicle: steriod suspending solution
  T/C: 120 % of control
dose: 25.0 mg/kg/injection, schedule: Q01DX Z (sc), vehicle: steriod suspending solution
  T/C: 115 % of control
dose: 50.0 mg/kg/injection, schedule: Q01DX Z (sc), vehicle: steriod suspending solution
  T/C: 119 % of control and 124 % of control
dose: 100.0 mg/kg/injection, schedule: Q01DX Z (sc), vehicle: steriod suspending solution
  T/C: 107 % of control
dose: 200.0 mg/kg/injection, schedule: Q01DX Z (sc), vehicle: steriod suspending solution
  T/C: 100 % of control
dose: 400.0 mg/kg/injection, schedule: Q01DX Z (sc), vehicle: steriod suspending solution
  T/C: 88 % of control

## O=c1[nH]c(=O)n(C2CC(O)C(CO)O2)cc1F (configuration not stated)
[1]
  T/C: 111 % of control
[2]
  T/C: 104 % of control
[3]
  T/C: 111 % of control
dose: 200.0 mg/kg/injection, schedule: Q01DX Z (ip), vehicle: carboxymethylcellulose (CMC)
  T/C: 114 % of control
dose: 400.0 mg/kg/injection, schedule: Q01DX Z (ip), vehicle: carboxymethylcellulose (CMC)
  T/C: 87 % of control
dose: 800.0 mg/kg/injection, schedule: Q01DX Z (ip), vehicle: carboxymethylcellulose (CMC)
  T/C: 86 % of control

## C[N+](C)(C)c1ncnc2nc[nH]c12
[5]
  T/C: 107 % of control
[1]
  T/C: 94 % of control
[2]
  T/C: 110 % of control
[3]
  T/C: 87 % of control and 107 % of control

## O=c1[nH]c(=O)n(C2CC(O)C(CO)O2)cc1Br (configuration not stated)
[12]
  T/C: 112 % of control
dose: 500.0 mg/kg/injection, schedule: Q01DX Z (ip), vehicle: carboxymethylcellulose (CMC)
  T/C: 115 % of control
dose: 1000.0 mg/kg/injection, schedule: Q01DX Z (ip), vehicle: carboxymethylcellulose (CMC)
  T/C: 94 % of control and 121 % of control

## O=C(Nc1ccc(C2=NCCN2)cc1)c1cccc(C(=O)Nc2ccc(C3=NCCN3)cc2)c1
dose: 9.4 mg/kg/injection, schedule: Q01DX Z (ip), vehicle: carboxymethylcellulose (CMC)
  T/C: 98 % of control
dose: 18.75 mg/kg/injection, schedule: Q01DX Z (ip), vehicle: carboxymethylcellulose (CMC)
  T/C: 114 % of control
dose: 37.5 mg/kg/injection, schedule: Q01DX Z (ip), vehicle: carboxymethylcellulose (CMC)
  T/C: 123 % of control
dose: 75.0 mg/kg/injection, schedule: Q01DX Z (ip), vehicle: carboxymethylcellulose (CMC)
  T/C: 98 % of control

## COC12C(COC(N)=O)C3=C(C(=O)C(C)=C(N)C3=O)N1CC1C2N1C (configuration not stated)
dose: 0.63 mg/kg/injection, schedule: Q01DX Z (ip), vehicle: carboxymethylcellulose (CMC)
  T/C: 110 % of control
dose: 5.0 mg/kg/injection, schedule: Q01DX Z (ip), vehicle: carboxymethylcellulose (CMC)
  T/C: 160 % of control and 168 % of control

Reference: PubChem BioAssay AID224 (DTP/NCI, 2004)
